Experimental data taken from PubChem BioAssay (NCI).
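In this assay, cells in 96-well plates receive the compound at five concentrations for 48 hours. Endpoints are linearly interpolated between the surrounding concentrations. GI50 is the concentration that inhibits growth by half. TGI denotes the concentration required for complete inhibition of growth.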

Legend:
Assay in all cases: DTP human tumour cell line panel, 48 h
PC-3 prostate = tested on: PC-3 prostate
NCI-H522 lung = tested on: NCI-H522 lung
A549 NSCLC = tested on: A549 NSCLC
MOLT-4 leukemia = tested on: MOLT-4 leukemia
RPMI-8226 leukemia = tested on: RPMI-8226 leukemia
HT29 colon = tested on: HT29 colon
UO-31 renal = tested on: UO-31 renal
TK-10 renal = tested on: TK-10 renal
NCI-H226 lung = tested on: NCI-H226 lung
SK-OV-3 ovarian = tested on: SK-OV-3 ovarian
SF-539 CNS = tested on: SF-539 CNS
NCI-H460 lung = tested on: NCI-H460 lung
K-562 leukemia = tested on: K-562 leukemia
COLO 205 colon = tested on: COLO 205 colon
SR leukemia = tested on: SR leukemia
IGROV1 ovarian = tested on: IGROV1 ovarian
CAKI-1 renal = tested on: CAKI-1 renal
MDA-MB-231 breast = tested on: MDA-MB-231 breast
SK-MEL-28 melanoma = tested on: SK-MEL-28 melanoma
SK-MEL-5 melanoma = tested on: SK-MEL-5 melanoma
UACC-257 melanoma = tested on: UACC-257 melanoma
EKVX NSCLC = tested on: EKVX NSCLC
MALME-3M melanoma = tested on: MALME-3M melanoma
SNB-19 CNS = tested on: SNB-19 CNS
SF-268 CNS = tested on: SF-268 CNS
LOX IMVI melanoma = tested on: LOX IMVI melanoma
MCF7 breast = tested on: MCF7 breast
RXF 393 renal = tested on: RXF 393 renal
T-47D breast = tested on: T-47D breast
SF-295 CNS = tested on: SF-295 CNS
M14 melanoma = tested on: M14 melanoma
OVCAR-3 ovarian = tested on: OVCAR-3 ovarian
ACHN renal = tested on: ACHN renal
DU-145 prostate = tested on: DU-145 prostate
SNB-75 CNS = tested on: SNB-75 CNS
OVCAR-4 ovarian = tested on: OVCAR-4 ovarian
HCC-2998 colon = tested on: HCC-2998 colon
BT-549 breast = tested on: BT-549 breast
U251 CNS = tested on: U251 CNS
NCI-H23 lung = tested on: NCI-H23 lung
SW-620 colon = tested on: SW-620 colon
OVCAR-5 ovarian = tested on: OVCAR-5 ovarian
HOP-92 NSCLC = tested on: HOP-92 NSCLC
HCT-15 colon = tested on: HCT-15 colon
CCRF-CEM leukemia = tested on: CCRF-CEM leukemia
HCT-116 colon = tested on: HCT-116 colon
SN12C renal = tested on: SN12C renal
NCI/ADR-RES ovarian = tested on: NCI/ADR-RES ovarian
HS 578T breast = tested on: HS 578T breast
HOP-62 NSCLC = tested on: HOP-62 NSCLC
MDA-MB-435 = tested on: MDA-MB-435
HL-60(TB) leukemia = tested on: HL-60(TB) leukemia
KM12 colon = tested on: KM12 colon
OVCAR-8 ovarian = tested on: OVCAR-8 ovarian
786-0 renal = tested on: 786-0 renal
UACC-62 melanoma = tested on: UACC-62 melanoma
SK-MEL-2 melanoma = tested on: SK-MEL-2 melanoma

CC(C)=CCc1c2c(c(O)c3c1O[C@]14C(=C[C@@H]5C[C@H]1C(C)(C)O[C@@]4(C/C=C(/C)C(=O)O)C5=O)C3=O)CC(O)C(C)(C)O2 (some centres undefined)
GI50 (PC-3 prostate): 19.8 µM | TGI (PC-3 prostate): 49.1 µM | GI50 (NCI-H522 lung): 14.9 µM | TGI (NCI-H522 lung): 28.4 µM | GI50 (A549 NSCLC): 31 µM | TGI (A549 NSCLC): 78.1 µM | GI50 (MOLT-4 leukemia): 17.3 µM | TGI (MOLT-4 leukemia): 65.1 µM | GI50 (RPMI-8226 leukemia): 10.1 µM | TGI (RPMI-8226 leukemia): 53.6 µM | GI50 (HT29 colon): 22 µM | TGI (HT29 colon): 62.4 µM | GI50 (UO-31 renal): 14.8 µM | TGI (UO-31 renal): 32.7 µM | GI50 (TK-10 renal): 23.8 µM | TGI (TK-10 renal): 41.1 µM | GI50 (NCI-H226 lung): 23.8 µM | TGI (NCI-H226 lung): 72.7 µM | GI50 (SK-OV-3 ovarian): 40.6 µM | TGI (SK-OV-3 ovarian): > 100 µM | GI50 (SF-539 CNS): 20.7 µM | TGI (SF-539 CNS): 46.5 µM | GI50 (NCI-H460 lung): 16.7 µM | TGI (NCI-H460 lung): 39.6 µM | GI50 (K-562 leukemia): 11.6 µM | TGI (K-562 leukemia): > 100 µM | GI50 (COLO 205 colon): 20.2 µM | TGI (COLO 205 colon): 43.4 µM | GI50 (SR leukemia): 7.8 µM | TGI (SR leukemia): > 100 µM | GI50 (IGROV1 ovarian): 20.3 µM | TGI (IGROV1 ovarian): 64.1 µM | GI50 (CAKI-1 renal): 19.9 µM | TGI (CAKI-1 renal): 57 µM | GI50 (MDA-MB-231 breast): 26.5 µM | TGI (MDA-MB-231 breast): 92.2 µM | GI50 (SK-MEL-28 melanoma): 19.7 µM | TGI (SK-MEL-28 melanoma): 47.6 µM | GI50 (SK-MEL-5 melanoma): 15 µM | TGI (SK-MEL-5 melanoma): 30.3 µM | GI50 (UACC-257 melanoma): 19.4 µM | TGI (UACC-257 melanoma): 43.8 µM | GI50 (EKVX NSCLC): 21.6 µM | TGI (EKVX NSCLC): 69.8 µM | GI50 (MALME-3M melanoma): 21.9 µM | TGI (MALME-3M melanoma): 52.5 µM | GI50 (SNB-19 CNS): 17.7 µM | TGI (SNB-19 CNS): 40.4 µM | GI50 (SF-268 CNS): 14.7 µM | TGI (SF-268 CNS): 34.5 µM | GI50 (LOX IMVI melanoma): 11.2 µM | TGI (LOX IMVI melanoma): 25.2 µM | GI50 (MCF7 breast): 9.1 µM | TGI (MCF7 breast): 52.4 µM | GI50 (RXF 393 renal): 19 µM | TGI (RXF 393 renal): 38.2 µM | GI50 (T-47D breast): 19 µM | TGI (T-47D breast): 58.8 µM | GI50 (SF-295 CNS): 27.9 µM | TGI (SF-295 CNS): 87 µM | GI50 (M14 melanoma): 14.7 µM | TGI (M14 melanoma): 34.7 µM | GI50 (OVCAR-3 ovarian): 14.5 µM | TGI (OVCAR-3 ovarian): 28 µM | GI50 (ACHN renal): 27.7 µM | TGI (ACHN renal): 85.7 µM | GI50 (DU-145 prostate): 20.8 µM | TGI (DU-145 prostate): 48.1 µM | GI50 (SNB-75 CNS): 21.3 µM | TGI (SNB-75 CNS): 64.1 µM | GI50 (OVCAR-4 ovarian): 24.4 µM | TGI (OVCAR-4 ovarian): 86.8 µM | GI50 (HCC-2998 colon): 17.7 µM | TGI (HCC-2998 colon): 32.9 µM | GI50 (BT-549 breast): 12.4 µM | TGI (BT-549 breast): 26.4 µM | GI50 (U251 CNS): 15 µM | TGI (U251 CNS): 30.1 µM | GI50 (NCI-H23 lung): 17.7 µM | TGI (NCI-H23 lung): 48.4 µM | GI50 (SW-620 colon): 13.2 µM | TGI (SW-620 colon): 33.2 µM | GI50 (OVCAR-5 ovarian): 28.6 µM | TGI (OVCAR-5 ovarian): 74 µM | GI50 (HOP-92 NSCLC): 22.1 µM | TGI (HOP-92 NSCLC): 48.9 µM | GI50 (HCT-15 colon): 22.6 µM | TGI (HCT-15 colon): > 100 µM | GI50 (CCRF-CEM leukemia): 5.76 µM | TGI (CCRF-CEM leukemia): 40.9 µM | GI50 (HCT-116 colon): 13.2 µM | TGI (HCT-116 colon): 26.7 µM | GI50 (SN12C renal): 18.9 µM | TGI (SN12C renal): 51 µM | GI50 (NCI/ADR-RES ovarian): 30.9 µM | TGI (NCI/ADR-RES ovarian): > 100 µM | GI50 (HS 578T breast): 14.1 µM | TGI (HS 578T breast): 86 µM | GI50 (HOP-62 NSCLC): 20.6 µM | TGI (HOP-62 NSCLC): 42.5 µM | GI50 (MDA-MB-435): 18.9 µM | TGI (MDA-MB-435): 51.8 µM | GI50 (HL-60(TB) leukemia): 27.9 µM | TGI (HL-60(TB) leukemia): 68 µM | GI50 (KM12 colon): 18.6 µM | TGI (KM12 colon): 39.6 µM | GI50 (OVCAR-8 ovarian): 18 µM | TGI (OVCAR-8 ovarian): 45.1 µM | GI50 (786-0 renal): 19.7 µM | TGI (786-0 renal): 38 µM | GI50 (UACC-62 melanoma): 15.5 µM | TGI (UACC-62 melanoma): 34.8 µM | GI50 (SK-MEL-2 melanoma): 16.6 µM | TGI (SK-MEL-2 melanoma): 34.7 µM
